# Reference: ChEMBL document CHEMBL3351222, “Novel multi-targeting anthra[2,3-b]thiophene-5,10-diones with guanidine-containing side chains: interaction with telomeric G-quadruplex, inhibition of telomerase and topoisomerase I and cytotoxic properties” (Eur J Med Chem, 2014)
# pIC50: −log10 of the molar value. Active and inactive are the calls of the source. No cut-off for these calls is given here.
# Assays:
# Homo sapiens [1] = species: Homo sapiens; assay: Binding affinity to human telomeric G-quadruplex TelQ22-DA DNA assessed as interaction with compound at 25 degC by isothermal titration calorimetry
# [2] = biological target: T1, DNA topoisomerase 1 (Homo sapiens) (UniProt P11387); assay: Inhibition of topoisomerase 1 (unknown origin)-mediated relaxation of supercoiled pBR322 at 1 uM after 30 mins by agarose gel electrophoresis
# T1 sequence (whole entry): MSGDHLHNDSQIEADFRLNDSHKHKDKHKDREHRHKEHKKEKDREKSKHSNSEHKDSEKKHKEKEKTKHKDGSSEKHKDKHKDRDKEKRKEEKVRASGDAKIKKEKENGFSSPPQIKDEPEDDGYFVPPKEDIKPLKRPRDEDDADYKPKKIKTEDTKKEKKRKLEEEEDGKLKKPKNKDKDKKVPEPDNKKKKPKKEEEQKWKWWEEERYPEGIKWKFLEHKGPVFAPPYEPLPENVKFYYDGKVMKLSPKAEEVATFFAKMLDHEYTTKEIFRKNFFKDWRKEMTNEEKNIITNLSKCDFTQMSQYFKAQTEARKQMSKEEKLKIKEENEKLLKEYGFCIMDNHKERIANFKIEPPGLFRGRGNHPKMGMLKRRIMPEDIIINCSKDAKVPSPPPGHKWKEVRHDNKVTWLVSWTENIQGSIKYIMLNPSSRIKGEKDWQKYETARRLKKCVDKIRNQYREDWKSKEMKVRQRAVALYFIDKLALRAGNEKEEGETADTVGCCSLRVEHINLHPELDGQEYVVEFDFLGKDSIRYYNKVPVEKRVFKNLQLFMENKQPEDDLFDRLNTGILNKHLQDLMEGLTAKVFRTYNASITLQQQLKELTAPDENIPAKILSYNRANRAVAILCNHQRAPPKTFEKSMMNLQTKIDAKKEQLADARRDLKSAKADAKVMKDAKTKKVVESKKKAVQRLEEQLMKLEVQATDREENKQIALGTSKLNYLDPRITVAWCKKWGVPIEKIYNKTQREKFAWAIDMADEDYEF
# Homo sapiens [3] = species: Homo sapiens; assay: Binding affinity to human telomeric G-quadruplex TelQ22-DA DNA assessed as change in melting temperature by FRET assay
# L1210 [4] = assay: Drug uptake in mouse L1210 cells at 1 uM after 15 mins; assay type: ADME, cell-based; conditions: l1210, 0.25 h
# [5] = biological target: T2, Telomerase reverse transcriptase (Homo sapiens, UniProt O14746); assay: Inhibition of human telomerase transfected in human HEK293T cells assessed as DNA extension using 5'-d(AATCCGTCGAGCAGAGTT)-3' substrate; assay type: cell-based; conditions: hek-293t
# T2 sequence (O14746 whole entry): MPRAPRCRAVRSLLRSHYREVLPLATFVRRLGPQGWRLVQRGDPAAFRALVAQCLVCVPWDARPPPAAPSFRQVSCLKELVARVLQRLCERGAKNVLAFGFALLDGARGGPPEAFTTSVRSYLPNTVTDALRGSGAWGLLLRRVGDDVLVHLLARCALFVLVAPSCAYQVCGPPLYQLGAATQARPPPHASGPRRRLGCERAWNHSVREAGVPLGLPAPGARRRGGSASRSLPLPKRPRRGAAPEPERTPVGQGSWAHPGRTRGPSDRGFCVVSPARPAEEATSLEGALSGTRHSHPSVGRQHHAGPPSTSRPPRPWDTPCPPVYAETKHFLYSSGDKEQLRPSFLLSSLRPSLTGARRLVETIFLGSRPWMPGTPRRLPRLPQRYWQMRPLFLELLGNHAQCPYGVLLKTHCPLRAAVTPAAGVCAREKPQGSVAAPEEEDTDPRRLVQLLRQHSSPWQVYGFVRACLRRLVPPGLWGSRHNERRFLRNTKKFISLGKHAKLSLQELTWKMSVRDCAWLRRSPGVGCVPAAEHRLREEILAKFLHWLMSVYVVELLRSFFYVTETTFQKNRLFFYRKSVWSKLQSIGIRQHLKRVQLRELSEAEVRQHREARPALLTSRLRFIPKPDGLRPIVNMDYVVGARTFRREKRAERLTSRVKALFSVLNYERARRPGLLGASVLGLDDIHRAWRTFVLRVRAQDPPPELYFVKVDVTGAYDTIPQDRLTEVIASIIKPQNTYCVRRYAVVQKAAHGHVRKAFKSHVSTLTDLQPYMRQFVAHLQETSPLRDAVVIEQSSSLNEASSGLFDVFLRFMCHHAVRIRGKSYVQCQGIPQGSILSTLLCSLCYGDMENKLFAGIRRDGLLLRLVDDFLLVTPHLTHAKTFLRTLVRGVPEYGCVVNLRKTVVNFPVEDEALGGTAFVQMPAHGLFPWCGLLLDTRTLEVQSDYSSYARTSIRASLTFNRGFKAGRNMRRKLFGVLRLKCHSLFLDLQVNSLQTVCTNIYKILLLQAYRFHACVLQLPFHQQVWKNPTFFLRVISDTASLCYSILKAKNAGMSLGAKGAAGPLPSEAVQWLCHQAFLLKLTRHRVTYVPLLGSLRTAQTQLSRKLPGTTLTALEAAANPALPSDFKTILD
# [6] = biological target: T2, Telomerase reverse transcriptase; assay: Inhibition of human telomerase transfected in human HEK293T cells assessed as DNA extension using 5'-d(AATCCGTCGAGCAGAGTT)-3' substrate by Real-time quantitative telomeric repeat amplification protocol; assay type: cell-based; conditions: hek-293t
# L1210 [7] = assay: Drug uptake in mouse L1210 cells at 1 uM after 3 hrs; assay type: ADME, cell-based; conditions: l1210, 3 h
# Homo sapiens [8] = species: Homo sapiens; assay: Binding affinity to human telomeric G-quadruplex TelQ22-DA DNA at 65 degC by FRET melting assay
# Homo sapiens [9] = species: Homo sapiens; assay: Binding affinity to human telomeric G-quadruplex TelQ24 (5'-d(TTAGGG)4)-3') DNA at 25 degC by fluorescent intercalator displacement assay
# L1210 [10] = assay: Cytotoxicity against mouse L1210 cells after 48 hrs by trypan blue assay; assay type: functional, cell-based; conditions: L1210, 48 h
# CCRF-CEM = assay: Cytotoxicity against human CEM cells after 48 hrs by trypan blue assay; assay type: functional, cell-based
smiles,measurement,setting,value
CNCCNc1c2c(c(NCCNC)c3sccc13)C(=O)c1ccccc1C2=O.Cl,Kb,Homo sapiens [1],1.6 ×10⁶ /M
same,inhibition,[2],Active
same,ΔTm,Homo sapiens [3],4.3 °C
same,Drug uptake,L1210 [4],Active
same,pIC50,[5],6.15
same,pIC50,[6],6.30
same,Drug uptake,L1210 [7],Active
same,Kb,Homo sapiens [8],1.1 ×10⁶ /M
same,Kb,Homo sapiens [9],11 ×10⁶ /M
same,pIC50,L1210 [10],6.05
N=C(N)NCCNc1c2c(c(NCCN)c3sccc13)C(=O)c1ccccc1C2=O,Kb,Homo sapiens [1],11 ×10⁶ /M
same,inhibition,[2],Active
same,ΔTm,Homo sapiens [3],5 °C
same,pIC50,[5],6.10
same,pIC50,[6],7.00
same,pIC50,CCRF-CEM,5.15
same,Kb,Homo sapiens [8],1.5 ×10⁶ /M
same,Kb,Homo sapiens [9],12 ×10⁶ /M
same,pIC50,L1210 [10],4.80
Nc1c2c(c(N)c3sccc13)C(=O)c1ccccc1C2=O,ΔTm,Homo sapiens [3],0.1 °C
same,pIC50,[5],5.00
same,pIC50,[6],4.48
same,pIC50,CCRF-CEM,< 3.60
same,Kb,Homo sapiens [8],0.01 ×10⁶ /M
same,Kb,Homo sapiens [9],1.3 ×10⁶ /M
same,pIC50,L1210 [10],< 3.60
Cl.N=C(N)NCCNc1c2c(c(NCCCN)c3sccc13)C(=O)c1ccccc1C2=O,Kb,Homo sapiens [1],3.7 ×10⁶ /M
same,inhibition,[2],Active
same,ΔTm,Homo sapiens [3],10 °C
same,Drug uptake,L1210 [4],Active
same,pIC50,[5],6.15
same,pIC50,[6],7.15
same,pIC50,CCRF-CEM,5.00
same,Drug uptake,L1210 [7],Active
same,Kb,Homo sapiens [8],5 ×10⁶ /M
same,Kb,Homo sapiens [9],9 ×10⁶ /M
same,pIC50,L1210 [10],5.00
CNCCNc1c2c(c(NCCNC(=N)N)c3sccc13)C(=O)c1ccccc1C2=O,Kb,Homo sapiens [1],2.5 ×10⁶ /M
same,ΔTm,Homo sapiens [3],5.1 °C
same,pIC50,[5],5.96
same,pIC50,[6],7.30
same,pIC50,CCRF-CEM,4.96
same,Kb,Homo sapiens [8],1.5 ×10⁶ /M
same,Kb,Homo sapiens [9],4 ×10⁶ /M
same,pIC50,L1210 [10],4.80
N=C(N)NCCNc1c2c(c(N)c3sccc13)C(=O)c1ccccc1C2=O,Kb,Homo sapiens [1],0.6 ×10⁶ /M
same,ΔTm,Homo sapiens [3],1 °C
same,pIC50,[5],5.70
same,pIC50,[6],6.05
same,pIC50,CCRF-CEM,4.80
same,Kb,Homo sapiens [8],0.2 ×10⁶ /M
same,Kb,Homo sapiens [9],1.6 ×10⁶ /M
same,pIC50,L1210 [10],4.72
N=C(N)NCCNc1c2c(c(N)c3ccsc13)C(=O)c1ccccc1C2=O,Kb,Homo sapiens [1],0.5 ×10⁶ /M
same,inhibition,[2],Active
same,ΔTm,Homo sapiens [3],1 °C
same,pIC50,[5],5.52
same,pIC50,[6],6.30
same,pIC50,CCRF-CEM,4.68
same,Kb,Homo sapiens [8],0.1 ×10⁶ /M
same,Kb,Homo sapiens [9],2.1 ×10⁶ /M
same,pIC50,L1210 [10],4.66
Cl.N=C(N)NCCNc1c2c(c(NCCNC(=N)N)c3sccc13)C(=O)c1ccccc1C2=O,inhibition,[2],Active
same,ΔTm,Homo sapiens [3],12 °C
same,Drug uptake,L1210 [4],Active
same,pIC50,[5],6.15
same,pIC50,[6],7.10
same,pIC50,CCRF-CEM,4.96
same,Drug uptake,L1210 [7],Active
same,Kb,Homo sapiens [8],7 ×10⁶ /M
same,Kb,Homo sapiens [9],8 ×10⁶ /M
same,pIC50,L1210 [10],4.70
CC(=N)NCCNc1c2c(c(NCCNC(C)=N)c3sccc13)C(=O)c1ccccc1C2=O,Kb,Homo sapiens [1],1.1 ×10⁶ /M
same,inhibition,[2],Active
same,ΔTm,Homo sapiens [3],7 °C
same,pIC50,[5],6.33
same,pIC50,[6],6.52
same,pIC50,CCRF-CEM,4.41
same,Kb,Homo sapiens [8],2.4 ×10⁶ /M
same,Kb,Homo sapiens [9],8 ×10⁶ /M
same,pIC50,L1210 [10],4.44
CNCCNc1c2c(c(NCCNC(=N)N)c3ccsc13)C(=O)c1ccccc1C2=O,Kb,Homo sapiens [1],4.9 ×10⁶ /M
same,inhibition,[2],Active
same,ΔTm,Homo sapiens [3],5.4 °C
same,pIC50,[5],6.22
same,pIC50,[6],6.52
same,pIC50,CCRF-CEM,5.22
same,Kb,Homo sapiens [8],1.6 ×10⁶ /M
same,Kb,Homo sapiens [9],5.5 ×10⁶ /M
same,pIC50,L1210 [10],4.64
